The source of these data is the supplement of paper PMC10307832.

The structures appear in SMILES notation.

In the first assay the test system is NCI-H596. Kind of assay: relative viability (nuclei count vs DMSO), 5 days (fraction); higher = more cells survive. The note with it: first compound 0.2 µM. In a few lines: (§1)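 Dosing by pin tool came one day after lung cancer cell lines were seeded in 1536-well plates, using either one drug or a fixed anchor-drug dose plus five library-drug doses (not always all listed) in √10 steps. After 5 days, nuclei were counted on 4× images. Relative viability is treated-well nuclei count divided by vehicle-well nuclei count, and values are medians of duplicate plates.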
Consider `COCC1(CO)C(=O)C2CCN1CC2` (stereo not drawn) [PRIMA-1MET] + N=C(N)NC(=N)NCCc1ccccc1 [Phenformin] (partner 250 µM), for which the relative viability was determined as 0.752.
Same read-out and setting: under `COCC1(CO)C(=O)C2CCN1CC2` (stereo not drawn) [PRIMA-1MET] + Nc1nc2[nH]cc(CCc3ccc(C(=O)N[C@@H](CCC(=O)O)C(=O)O)cc3)c2c(=O)[nH]1 [Pemetrexed] (partner 0.2 µM) stands 0.553; under `COCC1(CO)C(=O)C2CCN1CC2` (stereo not drawn) [PRIMA-1MET] + CC(=O)Nc1cccc(-n2c(=O)n(C3CC3)c(=O)c3c(Nc4ccc(I)cc4F)n(C)c(=O)c(C)c32)c1 [Trametinib] (partner 0.02 µM), 0.888; under `COCC1(CO)C(=O)C2CCN1CC2` (stereo not drawn) [PRIMA-1MET] + Nc1ncn([C@H]2C[C@H](O)[C@@H](CO)O2)c(=O)n1 [Decitabine] (partner 2 µM), 1.09.
Still for that read-out and setting: next, `COCC1(CO)C(=O)C2CCN1CC2` (stereo not drawn) [PRIMA-1MET] + O=C(c1cc(Cc2n[nH]c(=O)c3ccccc23)ccc1F)N1CCN(C(=O)C2CC2)CC1 [Olaparib] (partner 8 µM): 0.718.

Still in this assay, the particulars now being: first compound 0.6325 µM.
Regarding `COCC1(CO)C(=O)C2CCN1CC2` (stereo not drawn) [PRIMA-1MET] + N=C(N)NC(=N)NCCc1ccccc1 [Phenformin] (partner 250 µM), the relative viability is 0.794.
Compound `COCC1(CO)C(=O)C2CCN1CC2` (stereo not drawn) [PRIMA-1MET] + Nc1nc2[nH]cc(CCc3ccc(C(=O)N[C@@H](CCC(=O)O)C(=O)O)cc3)c2c(=O)[nH]1 [Pemetrexed] (partner 0.2 µM) returned a relative viability of 0.481.
Same read-out and setting: under `COCC1(CO)C(=O)C2CCN1CC2` (stereo not drawn) [PRIMA-1MET] + CC(=O)Nc1cccc(-n2c(=O)n(C3CC3)c(=O)c3c(Nc4ccc(I)cc4F)n(C)c(=O)c(C)c32)c1 [Trametinib] (partner 0.02 µM) stands 0.718; under `COCC1(CO)C(=O)C2CCN1CC2` (stereo not drawn) [PRIMA-1MET] + Nc1ncn([C@H]2C[C@H](O)[C@@H](CO)O2)c(=O)n1 [Decitabine] (partner 2 µM), 0.855; under `COCC1(CO)C(=O)C2CCN1CC2` (stereo not drawn) [PRIMA-1MET] + O=C(c1cc(Cc2n[nH]c(=O)c3ccccc23)ccc1F)N1CCN(C(=O)C2CC2)CC1 [Olaparib] (partner 8 µM), 0.652.

Still in this assay, the particulars now being: first compound 2 µM.
For `COCC1(CO)C(=O)C2CCN1CC2` (stereo not drawn) [PRIMA-1MET] + N=C(N)NC(=N)NCCc1ccccc1 [Phenformin] (partner 250 µM), the relative viability is 0.622.
On the same count and under the same terms, under `COCC1(CO)C(=O)C2CCN1CC2` (stereo not drawn) [PRIMA-1MET] + Nc1nc2[nH]cc(CCc3ccc(C(=O)N[C@@H](CCC(=O)O)C(=O)O)cc3)c2c(=O)[nH]1 [Pemetrexed] (partner 0.2 µM) stands 0.531; under `COCC1(CO)C(=O)C2CCN1CC2` (stereo not drawn) [PRIMA-1MET] + CC(=O)Nc1cccc(-n2c(=O)n(C3CC3)c(=O)c3c(Nc4ccc(I)cc4F)n(C)c(=O)c(C)c32)c1 [Trametinib] (partner 0.02 µM), 0.66.
The same measure, in the same setting: under `COCC1(CO)C(=O)C2CCN1CC2` (stereo not drawn) [PRIMA-1MET] + Nc1ncn([C@H]2C[C@H](O)[C@@H](CO)O2)c(=O)n1 [Decitabine] (partner 2 µM) stands 0.989; under `COCC1(CO)C(=O)C2CCN1CC2` (stereo not drawn) [PRIMA-1MET] + O=C(c1cc(Cc2n[nH]c(=O)c3ccccc23)ccc1F)N1CCN(C(=O)C2CC2)CC1 [Olaparib] (partner 8 µM), 0.6.

The assay is the same for the next values; noted with them: first compound 6.325 µM.
Consider `COCC1(CO)C(=O)C2CCN1CC2` (stereo not drawn) [PRIMA-1MET] + N=C(N)NC(=N)NCCc1ccccc1 [Phenformin] (partner 250 µM), for which the relative viability came to 0.891.
On to `COCC1(CO)C(=O)C2CCN1CC2` (stereo not drawn) [PRIMA-1MET] + Nc1nc2[nH]cc(CCc3ccc(C(=O)N[C@@H](CCC(=O)O)C(=O)O)cc3)c2c(=O)[nH]1 [Pemetrexed] (partner 0.2 µM), for which the relative viability stood at 0.495.
On the same count and under the same terms, next, `COCC1(CO)C(=O)C2CCN1CC2` (stereo not drawn) [PRIMA-1MET] + CC(=O)Nc1cccc(-n2c(=O)n(C3CC3)c(=O)c3c(Nc4ccc(I)cc4F)n(C)c(=O)c(C)c32)c1 [Trametinib] (partner 0.02 µM): 0.837.
On the same count and under the same terms, under `COCC1(CO)C(=O)C2CCN1CC2` (stereo not drawn) [PRIMA-1MET] + Nc1ncn([C@H]2C[C@H](O)[C@@H](CO)O2)c(=O)n1 [Decitabine] (partner 2 µM) stands 1.07; under `COCC1(CO)C(=O)C2CCN1CC2` (stereo not drawn) [PRIMA-1MET] + O=C(c1cc(Cc2n[nH]c(=O)c3ccccc23)ccc1F)N1CCN(C(=O)C2CC2)CC1 [Olaparib] (partner 8 µM), 0.735.

The assay is the same for the next values; noted with them: first compound 20 µM.
`COCC1(CO)C(=O)C2CCN1CC2` (stereo not drawn) [PRIMA-1MET] + N=C(N)NC(=N)NCCc1ccccc1 [Phenformin] (partner 250 µM) registered a relative viability of 0.693.
Still for that read-out and setting: under `COCC1(CO)C(=O)C2CCN1CC2` (stereo not drawn) [PRIMA-1MET] + Nc1nc2[nH]cc(CCc3ccc(C(=O)N[C@@H](CCC(=O)O)C(=O)O)cc3)c2c(=O)[nH]1 [Pemetrexed] (partner 0.2 µM) stands 0.176; under `COCC1(CO)C(=O)C2CCN1CC2` (stereo not drawn) [PRIMA-1MET] + CC(=O)Nc1cccc(-n2c(=O)n(C3CC3)c(=O)c3c(Nc4ccc(I)cc4F)n(C)c(=O)c(C)c32)c1 [Trametinib] (partner 0.02 µM), 0.119; under `COCC1(CO)C(=O)C2CCN1CC2` (stereo not drawn) [PRIMA-1MET] + Nc1ncn([C@H]2C[C@H](O)[C@@H](CO)O2)c(=O)n1 [Decitabine] (partner 2 µM), 0.655.
The compound `COCC1(CO)C(=O)C2CCN1CC2` (stereo not drawn) [PRIMA-1MET] + O=C(c1cc(Cc2n[nH]c(=O)c3ccccc23)ccc1F)N1CCN(C(=O)C2CC2)CC1 [Olaparib] (partner 8 µM) had a relative viability of 0.238.

In another assay the test system is NCI-H2087. The assay is described as above. The conditions noted are these: first compound 0.2 µM. The essentials: as §1
Consider `COCC1(CO)C(=O)C2CCN1CC2` (stereo not drawn) [PRIMA-1MET] + N=C(N)NC(=N)NCCc1ccccc1 [Phenformin] (partner 250 µM), for which the relative viability came to 0.315.

The assay is the same for the next values; noted with them: first compound 0.6325 µM.
In turn, `COCC1(CO)C(=O)C2CCN1CC2` (stereo not drawn) [PRIMA-1MET] + N=C(N)NC(=N)NCCc1ccccc1 [Phenformin] (partner 250 µM) yielded a relative viability of 0.332.
The same measure, in the same setting: under `COCC1(CO)C(=O)C2CCN1CC2` (stereo not drawn) [PRIMA-1MET] + Nc1nc2[nH]cc(CCc3ccc(C(=O)N[C@@H](CCC(=O)O)C(=O)O)cc3)c2c(=O)[nH]1 [Pemetrexed] (partner 0.2 µM) stands 0.639.
On the same count and under the same terms, under `COCC1(CO)C(=O)C2CCN1CC2` (stereo not drawn) [PRIMA-1MET] + CC(=O)Nc1cccc(-n2c(=O)n(C3CC3)c(=O)c3c(Nc4ccc(I)cc4F)n(C)c(=O)c(C)c32)c1 [Trametinib] (partner 0.02 µM) stands 0.185; under `COCC1(CO)C(=O)C2CCN1CC2` (stereo not drawn) [PRIMA-1MET] + Nc1ncn([C@H]2C[C@H](O)[C@@H](CO)O2)c(=O)n1 [Decitabine] (partner 2 µM), 0.226; under `COCC1(CO)C(=O)C2CCN1CC2` (stereo not drawn) [PRIMA-1MET] + O=C(c1cc(Cc2n[nH]c(=O)c3ccccc23)ccc1F)N1CCN(C(=O)C2CC2)CC1 [Olaparib] (partner 8 µM), 0.589.

Staying with this assay, now noted: first compound 2 µM.
On to `COCC1(CO)C(=O)C2CCN1CC2` (stereo not drawn) [PRIMA-1MET] + N=C(N)NC(=N)NCCc1ccccc1 [Phenformin] (partner 250 µM), for which the relative viability is 0.494.
`COCC1(CO)C(=O)C2CCN1CC2` (stereo not drawn) [PRIMA-1MET] + Nc1nc2[nH]cc(CCc3ccc(C(=O)N[C@@H](CCC(=O)O)C(=O)O)cc3)c2c(=O)[nH]1 [Pemetrexed] (partner 0.2 µM) yielded a relative viability of 0.68.
